Data: ChEMBL document CHEMBL1201862, “PubChem BioAssay data set” (2004)
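These data come from cells grown in 96-well plates and exposed to compound for 48 hours at five concentrations. At the GI50, growth is halved.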 Active and inactive are the calls of the source. Cut-off read from the data, not from the text of the source: active = GI50 up to about 1.1 µM and inactive = higher.

Columns and labels:
Assay in all cases: growth of human tumour cells (NCI), 48 h
UO-31 = system: UO-31
A549 = system: A549
SK-MEL-2 = system: SK-MEL-2
HT-29 = system: HT-29
UACC-257 = system: UACC-257
UACC-62 = system: UACC-62
PC-3 = system: PC-3
HCT-116 = system: HCT-116
MCF7 = system: MCF7
OVCAR-8 = system: OVCAR-8
OVCAR-3 = system: OVCAR-3
IGROV-1 = system: IGROV-1
TK-10 = system: TK-10
K562 = system: K562
CCRF-CEM = system: CCRF-CEM
NCI-H23 = system: NCI-H23
SK-MEL-28 = system: SK-MEL-28
HOP-92 = system: HOP-92
RPMI-8226 = system: RPMI-8226
T47D = system: T47D

SMILES	GI50 (UO-31)	GI50 (A549)	GI50 (SK-MEL-2)	GI50 (HT-29)	GI50 (UACC-257)	GI50 (UACC-62)	GI50 (PC-3)	GI50 (HCT-116)	GI50 (MCF7)	GI50 (OVCAR-8)	GI50 (OVCAR-3)	GI50 (IGROV-1)	GI50 (TK-10)	GI50 (K562)	GI50 (CCRF-CEM)	GI50 (NCI-H23)	GI50 (SK-MEL-28)	GI50 (HOP-92)	GI50 (RPMI-8226)	GI50 (T47D)
C[C@H]1O[C@@H](c2c(O)ccc3ccccc23)C[C@@H](N(C)C)C1O (stereo not given in full)	41.4 µM (inactive)	> 100 µM (inactive)	> 100 µM (inactive)	54.6 µM (inactive)	26.5 µM (inactive)	81.3 µM (inactive)	48.3 µM (inactive)	> 100 µM (inactive)	> 100 µM (inactive)	> 100 µM (inactive)	> 100 µM (inactive)	73.6 µM (inactive)	41.3 µM (inactive)	> 100 µM (inactive)	> 100 µM (inactive)	> 100 µM (inactive)	97.5 µM (inactive)	24.2 µM (inactive)		
C#CCNC(=O)NC(CCCCNC(=O)OCc1ccccc1)C(=O)OCc1ccccc1 (stereo not given)	21.6 µM (inactive)	> 77.6 µM (inactive)	16.6 µM (inactive)	> 56.2 µM (inactive)	19.7 µM (inactive)	12.7 µM (inactive)	> 67 µM (inactive)	> 100 µM (inactive)	> 100 µM (inactive)	95.1 µM (inactive)	62.2 µM (inactive)	> 100 µM (inactive)	37.6 µM (inactive)	53.6 µM (inactive)	49.8 µM (inactive)	76.2 µM (inactive)	17.7 µM (inactive)	18.7 µM (inactive)	26.7 µM (inactive)	
Cc1ccc2c(O)cc(-c3sc4ccccc4c3C)nc2n1	0.661 µM (active)	22.7 µM (inactive)	37 µM (inactive)	25.9 µM (inactive)	32.3 µM (inactive)	16.9 µM (inactive)		20.1 µM (inactive)	41.7 µM (inactive)	25.2 µM (inactive)		19.8 µM (inactive)	46.6 µM (inactive)	27.1 µM (inactive)	23.9 µM (inactive)		19.1 µM (inactive)	4.46 µM (inactive)	14.5 µM (inactive)	14.5 µM (inactive)
COc1cc(C)c(/C=C/C(=O)N2C(=O)OC[C@@H]2c2ccccc2)c(C)c1	> 100 µM (inactive)	> 100 µM (inactive)	> 100 µM (inactive)	18.6 µM (inactive)	88.7 µM (inactive)		50.4 µM (inactive)	89.3 µM (inactive)		40.2 µM (inactive)	> 100 µM (inactive)	> 100 µM (inactive)	> 100 µM (inactive)	78.9 µM (inactive)	61.8 µM (inactive)	> 100 µM (inactive)	> 100 µM (inactive)	> 100 µM (inactive)	48.3 µM (inactive)	23.2 µM (inactive)
CS(=O)(=O)OCCN1CCC2(CC1)SSC1(CCN(CCOS(C)(=O)=O)CC1)S2	45 µM (inactive)	> 100 µM (inactive)	> 100 µM (inactive)	50.5 µM (inactive)	> 100 µM (inactive)	30.1 µM (inactive)	44.7 µM (inactive)	53.2 µM (inactive)	17.1 µM (inactive)	> 100 µM (inactive)	29.2 µM (inactive)	50.8 µM (inactive)	15.7 µM (inactive)	64.4 µM (inactive)		60 µM (inactive)	> 100 µM (inactive)		8.87 µM (inactive)	
O=C(O)Cn1cc([N+](=O)[O-])c(=O)c2ccccc21	> 100 µM (inactive)	> 100 µM (inactive)	> 100 µM (inactive)	> 100 µM (inactive)	> 100 µM (inactive)	> 100 µM (inactive)	> 100 µM (inactive)	> 100 µM (inactive)	> 100 µM (inactive)	> 100 µM (inactive)	> 100 µM (inactive)	> 100 µM (inactive)	> 100 µM (inactive)	> 100 µM (inactive)	> 100 µM (inactive)	> 100 µM (inactive)	> 100 µM (inactive)			18.8 µM (inactive)
CCSc1c(C)c2c(n(Cc3ccc(OC)cc3)c1=O)Cc1ccccc1C2	12.4 µM (inactive)	21.9 µM (inactive)	8.3 µM (inactive)	28.2 µM (inactive)	13.3 µM (inactive)	22.9 µM (inactive)	15.3 µM (inactive)	11.2 µM (inactive)	24.7 µM (inactive)	14.9 µM (inactive)	20.1 µM (inactive)	19 µM (inactive)	27.2 µM (inactive)	16.5 µM (inactive)	2.02 µM (inactive)	20 µM (inactive)	92.7 µM (inactive)			30.5 µM (inactive)
